For data set [1], the target named is T1, purified topoisomerase II α (Homo sapiens, UniProt P11388). Kind of data set: Decatenation assay (kDNA decatenation). Format: biochemical. From the text:
The decatenation assay is a direct measurement of a given compounds inhibitory action on purified topoisomerase II enzyme. The general role of the topoisomerase II enzyme in living cells is to cause decatenation of catenated DNA during cell division. If a compound is able to inhibit this decatenation, the compound is an inhibitor of the topoisomerase II enzyme. While this assay is capable of determining whether a given compound is active against topoisomerase II, information concerning the exact mode of action is not provided.
Topoisomerase II catalytic activity is measured by kDNA decatenation. ^3H labelled kDNA is isolated from Crithidia fasciculata (ATCC, Manassas, Va.) as described in (24). Briefly, relevant concentrations of the test compound in buffer (50 mM Tris-Cl, pH8, 120 mM KCl, 10 mM MgCl2, 1.0 mM ATP, […]) and purified topoisomerase II α is incubated with […] for 15 min at 37° C. in a final volume of 20 μl. After addition of stop buffer/loading dye mix (5% Sarkosyl, 0.0025% bromophenol blue, 25% glycerol), samples are loaded on 1% agarose/0.5% ethidium bromide gels and run in TBE buffer containing […] ethidium bromide at 100V for approximately 50 min and photographed under UV light. In addition, loading wells are cut out and scintillation counted to obtain numerical values. These values are then plotted against drug concentration to obtain dose-response curves enabling the determination of IC50 values for individual compounds.

Data set [2] concerns the target T1, purified topoisomerase II α. The experiment in a line: Plasmid cleavage assay. Format: biochemical. How it is done:
The plasmid cleavage assay is capable of assessing wether a given compound stimulates topoisomerase II mediated DNA cleavage in the test tube. A modification of the protocol described in (Burden et al., 2001) is used. 350 ng purified human topoisomerase II α, 400 ng pUC18 DNA, and increasing concentrations of drugs were incubated for 6 min at 37° C. in 20 μl topoisomerase II cleavage buffer (10 mM TRIS-HCL pH 7.9, 50 mM NaCl, 50 mM KCl, 5 mM CaCl2, 1 mM EDTA, 15 μg/ml BSA and 1 mM Na2ATP, all from Sigma Chemical Co., St. Louis, Mo., USA). Next, the cleavable complex was trapped by adding 2 μl 10% SDS. After vigorous vortexing 1.5 μl 0.25 M EDTA and 2 μl proteinase K (0.8 μg/ml) in proteinase buffer (50 mM Tris-HCL pH=7.9, 1 mM CaCl2) was added and the samples vortexed. After a 30 min incubation at 45° C., 5 μl loading buffer (5% Sarkosyl, 0.0025% bromophenol blue, 25% glycerol) was added and the samples were exposed to 70° C. for 5 min. Next, samples were run through a 0.8 % agarose gel in 1× TAE buffer for three hours at 5 V/cm to separate different topological forms of plasmid DNA. Finally the gels were strained in distilled water containing 10 μg/ml ethidium bromide for 15 min followed by de-strained in distilled water for one hour before they were photographed in UV light. […] Further, compounds not capable of stimulating topoisomerase mediated DNA cleavage while being active in the decatenation assay are also classified as topoisomerase II catalytic inhibitors.

The conditions of data set [3]: animal studies and patients; cited from earlier work.
The next data set relates to OC—NYH cells. Kind of data set: Alkaline elution (single strand DNA breaks, SSBs).
Data set [4] has as its system cultured human cancer cells. The experiment in a line: Clonogenic assay (cytotoxicity; antagonism of topoisomerase II poison cytotoxicity). The following applies: for inhibition of the toxicity of the classical poisons (protection): poisons VP16, DAU, IDA; for IC50: Homo sapiens, read-out: IC50 (clonogenic assay).
Excerpt: The information derived from the clonogenic assay is cytotoxicity.
A 3-week clonogenic assay is used. […] The number of cells is adjusted to obtain 2000 to 3000 colonies in the control dishes. Finally, the colonies are counted.
Data set [5] concerns NCI-H69, NCI-H69/DAU and NCI-H69/VP. Kind of data set: Clonogenic assay on NCI-H69 and multi drug resistant derivatives. The following applies: NCI-H69 versus NCI-H69/DAU and NCI-H69/VP. Format: cell-based, human. From the text: Further corroboration of catalytic inhibitory activity of compounds of formula M was found in clonogenic assays on human lung cancer cell lines H69/dau and H69/VP because no resistance to compounds of formula M was found in these cell lines which are selected to be daunorubicin and, etopside (VP-16) resistant respectively.
A 3-week clonogenic assay is used. […] Finally, the colonies are counted.

For data set [6], the system named is extractable topoisomerase II in OC—NYH cells. The experiment in a line: Band depletion assay.
Description: OC—NYH cells are incubated for 1 h at 37 C in RPMI 1640 with 10% of fetal calf serum with the desired compounds for test. Thereafter, whole cell lysates were obtained at 4 C. Exponentially growing cells were harvested and washed in PBS. Cells are resuspended in 0.2 mL ELB-buffer (NaCl 0.25 M, NP40 0.1%, HEPES 50 mM, EDTA 5 mM) containing aprotinin 1 μg/ml, leupeptin 1 μg/ml, DTT 1M and PMSF 0.3 mM and lysed for 30 min. Pellets are spun down at 20000×g for 20 min. The protein concentration of the supernatants is measured, and the supernatants are diluted with an equal volume of glycerol.
After heating the nuclear extracts for 5 min at 95 C, the sample is immediately loaded on a 7% SDS-PAGE gel containing 5% glycerol. Thereafter, all steps are performed at RT. The separated proteins are transferred to Trans-Blot® Nitrocellulose, in a Mini Trans-blot® Electrophoretic Transfer Cell with 25 mM Tris, 192 mM glycine and 205 v/v methanol, pH 8.3 at 210 mA for 1 h. Membranes are blocked in 10% milk in TBS-T for 1 h and probed with either topoisomerase II as (1:1000) 1 h. Horseradish-peroxidase-conjugated donkey-antirabbit antibodies are used as secondary antibodies. The blots are developed using ECL™reagent 1 min and thereafter exposed on films for 5 min. Quantification of can be made by densitometric scanning.
Setting [7] is: read-out: IC50, topoisomerase II decatenation.
Where [8] appears, read: FIG. 7, read-out: IC50, decatenation assay.
Where [9] appears, read: etoposide 50 uM, compound between 5 and 625 uM.
[10] abbreviates: compound 75 uM, daunorubicin 0.3 uM.

Consider seven compounds from patent publication US20070196360A1, “SUCCINIMIDE AND MALEIMIDE DERIVATIVES AND THEIR USE AS TOPOISOMERASE II CATALYTIC INHIBITORS” (TOPOTARGET A/S, priority 2001, published 2007).

The structures appear in SMILES notation. “Also recorded” adds a separate entry of the source. Where two headings read alike, the source gives them in different places. Marks after values point to notes of the source that are not given here.

T1 sequence (P11388 whole entry): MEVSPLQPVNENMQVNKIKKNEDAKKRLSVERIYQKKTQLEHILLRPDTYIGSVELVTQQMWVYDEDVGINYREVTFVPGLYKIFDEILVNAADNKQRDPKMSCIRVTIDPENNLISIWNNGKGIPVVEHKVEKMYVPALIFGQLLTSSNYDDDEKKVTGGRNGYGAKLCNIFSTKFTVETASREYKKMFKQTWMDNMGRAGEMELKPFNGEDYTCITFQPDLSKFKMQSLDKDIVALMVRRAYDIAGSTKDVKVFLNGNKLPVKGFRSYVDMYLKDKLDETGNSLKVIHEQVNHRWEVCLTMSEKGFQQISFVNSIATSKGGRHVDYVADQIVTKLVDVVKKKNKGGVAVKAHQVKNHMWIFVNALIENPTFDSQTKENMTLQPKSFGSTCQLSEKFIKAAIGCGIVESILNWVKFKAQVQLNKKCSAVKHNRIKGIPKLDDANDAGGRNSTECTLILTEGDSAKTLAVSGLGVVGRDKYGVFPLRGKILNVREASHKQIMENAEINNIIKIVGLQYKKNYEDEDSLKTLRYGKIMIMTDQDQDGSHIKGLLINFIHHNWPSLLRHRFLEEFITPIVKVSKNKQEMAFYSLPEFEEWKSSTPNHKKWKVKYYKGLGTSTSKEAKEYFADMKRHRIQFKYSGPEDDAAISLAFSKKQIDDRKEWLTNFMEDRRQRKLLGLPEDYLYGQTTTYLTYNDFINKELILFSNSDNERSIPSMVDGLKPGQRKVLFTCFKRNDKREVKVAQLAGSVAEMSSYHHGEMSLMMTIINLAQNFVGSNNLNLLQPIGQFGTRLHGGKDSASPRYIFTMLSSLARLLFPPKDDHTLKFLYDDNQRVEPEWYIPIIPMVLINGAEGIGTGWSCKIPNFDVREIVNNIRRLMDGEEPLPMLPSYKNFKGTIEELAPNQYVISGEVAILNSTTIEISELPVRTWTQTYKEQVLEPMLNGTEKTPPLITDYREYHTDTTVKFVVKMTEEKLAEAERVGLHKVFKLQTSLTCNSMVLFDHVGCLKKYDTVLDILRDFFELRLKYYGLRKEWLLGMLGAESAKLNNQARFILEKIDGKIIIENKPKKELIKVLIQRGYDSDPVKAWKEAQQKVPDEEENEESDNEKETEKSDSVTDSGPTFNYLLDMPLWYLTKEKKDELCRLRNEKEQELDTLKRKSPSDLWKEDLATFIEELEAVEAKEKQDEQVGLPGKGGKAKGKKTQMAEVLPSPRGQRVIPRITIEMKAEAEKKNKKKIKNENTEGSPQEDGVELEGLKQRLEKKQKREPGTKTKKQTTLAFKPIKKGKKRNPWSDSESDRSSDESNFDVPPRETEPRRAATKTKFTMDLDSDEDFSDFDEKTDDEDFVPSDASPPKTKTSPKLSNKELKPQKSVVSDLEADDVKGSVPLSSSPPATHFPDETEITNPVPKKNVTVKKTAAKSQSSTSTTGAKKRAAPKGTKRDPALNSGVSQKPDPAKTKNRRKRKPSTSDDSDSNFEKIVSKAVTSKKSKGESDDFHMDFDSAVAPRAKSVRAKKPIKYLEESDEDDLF

On to `C[C@@H](CN1CC(=O)NC(=O)C1)N1CC(=O)NC(=O)C1` [ICRF-187, (+)-1,2-bis(3,5-dioxopiperazinyl-1-yl)propane, reference compound], for which the “inhibition of topoisomerase II catalytic activity (decatenation), in words” value (“inhibition … in words” below) in data set [1] is “effectively. IC50 about”. The IC50 in data set [1] (setting [7]) is around 50 µM. Besides, in data set [2], the “antagonism of etoposide induced DNA cleavage” value is “cleavage. No”. Moreover, the “protection against anthracycline extravasation injuries” value in data set [3] is on record as “protected”. Moreover, the “reversal of etoposide (VP-16) induced SSBs” value with OC—NYH cells (compound 500 μM, etoposide 3 μM (FIG. 4)) is recorded as “reversal”. In the data set with OC—NYH cells (compound at 200 uM), the “inhibition of VP-16 induced SSBs” value was “Effective inhibition of”. Besides, the protection class entry in data set [4] (compound 500 uM, idarubicin 0.01 μM) is on record as “(IDA(0.01)+ up to (The + indicates, that the protection. i.e. log(number of surviving cells) is about 1.)”. In data set [4] (compound 500 uM, idarubicin 0.03), this compound had a survival of at most 40% survival)*. Also, the LD50 in data set [4] (compound alone) was determined as 750 µM. Besides, the toxic to cells result in data set [4] (compound given alone) is “no toxicity and Not”. For the same compound, in data set [4], the “inhibition of the toxicity of the classical poisons (protection)” value (shortened to “inhibition of the toxicity … (protection)”) is recorded as “Effective inhibitor of”.

In the case of `O=C1C=CC(=O)N1` [maleimide], the “cross resistance of MDR cell lines” value in data set [5] was “No cross resistance”. For the same compound, the “inhibition … in words” value in data set [1] is given as “Very potent,”. Moreover, the IC50 in data set [1] (setting [8]) is around 2 µM. Also, the half-inhibitory concentration (IC50) in data set [1] (setting [7]) turned out to be 2 µM. Further, in data set [2], the “antagonism of etoposide induced DNA cleavage” value is “capable of antagonising” and the “stimulation of topoisomerase II mediated DNA cleavage” value is “does not stimulate”. For the same compound, the “antagonism of etoposide induced DNA cleavage” value in data set [2] (setting [9]) was “Strong”. The “band depleting effect of etoposide” value in data set [6] (etoposide 100 μM, compound 50 μM (FIG. 10)) is listed as “completely lost”. In addition, the “antagonism of DNA damage induced by etoposide, daunorubicin or doxorubicin” value in the data set on OC—NYH cells is recorded as “antagonize”. Also, the “inhibition of VP-16 induced SSBs” value with OC—NYH cells (compound at 50 uM) was “antagonise; also recorded: Effective”. In data set [4], the “antagonism of etoposide and daunorubicin mediated cytotoxicity” value is “effectively blocked”; the “inhibition of the toxicity … (protection)” value was “Effective”. Besides, the survival entry in data set [4] (compound 0.5 uM, DAU 0.5 uM) was “up to 10%”. In addition, in data set [4] (compound 0.5 uM, VP-16 20 uM), the protection class result is reported as “(VP-16 (20 uM)+ (The + indicates, that the protection. i.e. log(number of surviving cells) is about 1.)” and the survival entry is “up to 30%”. In addition, the LD50 result in data set [4] (compound alone) is given as “LD50 4 uM”. For the same compound, the toxic to cells entry in data set [4] (compound given alone) is recorded as “toxic to cells in itself; also recorded: Very toxic to”. The “inhibition of poison induced cell toxicity” value in data set [4] (etoposide 20 μM and daunorubicin 0.3 μM (FIG. 3)) is reported as “strong”.

As for `CCN1C(=O)C=CC1=O` [NEM, N-ethyl-maleimide], the “inhibition … in words” value in data set [1] is “Very potent,”. The IC50 in data set [1] (setting [8]) is around 4 µM; in data set [1] (setting [7]), 5 µM; in data set [4], 4 µM. Also, the figures for the “antagonism of etoposide induced DNA cleavage” value in data set [2] and in data set [2] (setting [9]) were “capable of antagonising” and “Strong”, respectively. Besides, the “stimulation of topoisomerase II mediated DNA cleavage” value in data set [2] is recorded as “does not stimulate”. Further, the “DNA damage by the compound itself” value with OC—NYH cells (concentrations up to 250 uM) is “Only limited DNA”.

With `COc1cc([C@@H]2c3cc4c(cc3[C@@H](O[C@@H]3O[C@@H]5CO[C@@H](C)O[C@H]5[C@H](O)[C@H]3O)[C@H]3COC(=O)[C@H]23)OCO4)cc(OC)c1O` [etoposide, reference compound], the “extractable amount of topoisomerase II” value in data set [6] (cells treated with 100 μM) is reported as “clearly reduced”.

Regarding `O=C1CC(NCCNC2CC(=O)NC2=O)C(=O)N1` (stereo not shown) [I-21, N,N′-Di-(pyrrolidine-2′,5′-dione-3′-yl)-ethylene-1,2-diamine], in data set [1], the “concentration from which topoisomerase II decatenation is inhibited” value is “above 500 uM. IC50”. Moreover, the IC50 in data set [1] (setting [7]) is around 800 µM. Also, in the data set on OC—NYH cells (compound from 50-500 uM), the “effect on the VP-16 induced SSBs” value is “No effect on the VP-16”. In addition, in data set [4] (compound 500 uM, VP-16 20 uM), the protection class result is on record as “+ (The + indicates, that the protection. i.e. log(number of surviving cells) is about 1.)” and the survival is at most 1%. Further, the LD50 result in data set [4] (compound alone) was “LD50 = 750 uM”. Also, the toxic to cells result in data set [4] (lower pH) is on record as “pH 7.4. Tax at lower”. In addition, the toxic to cells entry in data set [4] (pH 7.4) is given as “Not toxic to cells”. In addition, in data set [4], the “inhibition of the toxicity … (protection)” value is “Only very weak”.

On to `CN1C(=O)C=CC1=O` [NMM, N-methyl-maleimide], for which the “inhibition … in words” value in data set [1] is on record as “Very potent,”. Moreover, the IC50 in data set [1] (setting [8]) is around 4 µM; in data set [1] (setting [7]), 5 µM; in data set [4], 4 µM. For the same compound, the “antagonism of etoposide and daunorubicin mediated cytotoxicity” value in data set [4] is reported as “effectively blocked”.

`CC(CNC1CC(=O)NC1=O)NC1CC(=O)NC1=O` (stereo not shown) [I-112]: the “inhibition … in words” value in data set [1] is on record as “effectively. IC50 about”. In addition, the IC50 in data set [1] (setting [7]) was around 100 µM. For the same compound, the “inhibition of VP-16 induced SSBs” value in the data set with OC—NYH cells (compound at 250 uM, FIG. 4: etoposide 3 μM) is listed as “reversal; also recorded: Effective inhibition of”. In data set [4], the “protection against VP-16 toxicity” value is “VPneg” and the “inhibition of the toxicity … (protection)” value is reported as “able to protect; also recorded: Inhibits the toxicity of”. In data set [4] (setting [10]), the protection class entry was “DAU(0.3[…]uM)+ up to (The + indicates, that the protection. i.e. log(number of surviving cells) is about 1.)” and the survival is on record as at most 20% survival. In data set [4] (compound alone), the LD10 result is given as “LD10 = 75 uM”. Also, the toxic to cells entry in data set [4] (compound given alone) was “no cytotoxicity; also recorded: Not toxic to cells”.

Broadly, the IC50 is the point on the concentration scale where inhibition reaches its midpoint.
